The target of experiment [1] is Histamine H4 receptor (Homo sapiens) (UniProt Q9H3N8). As to conditions: Compound concentration 10.0 uM.
The target in experiment [2] is Glycogen synthase kinase-3 beta (Homo sapiens) (UniProt P49841). The experiment is described as follows: GSK3B SGC Tm panel (DSF). To be noted: Compound concentration 20.0 uM.
Experiment [3] has as its target T1, Zinc finger and BTB domain-containing protein 9 (Homo sapiens) (UniProt Q96C00).
T1 sequence (whole entry): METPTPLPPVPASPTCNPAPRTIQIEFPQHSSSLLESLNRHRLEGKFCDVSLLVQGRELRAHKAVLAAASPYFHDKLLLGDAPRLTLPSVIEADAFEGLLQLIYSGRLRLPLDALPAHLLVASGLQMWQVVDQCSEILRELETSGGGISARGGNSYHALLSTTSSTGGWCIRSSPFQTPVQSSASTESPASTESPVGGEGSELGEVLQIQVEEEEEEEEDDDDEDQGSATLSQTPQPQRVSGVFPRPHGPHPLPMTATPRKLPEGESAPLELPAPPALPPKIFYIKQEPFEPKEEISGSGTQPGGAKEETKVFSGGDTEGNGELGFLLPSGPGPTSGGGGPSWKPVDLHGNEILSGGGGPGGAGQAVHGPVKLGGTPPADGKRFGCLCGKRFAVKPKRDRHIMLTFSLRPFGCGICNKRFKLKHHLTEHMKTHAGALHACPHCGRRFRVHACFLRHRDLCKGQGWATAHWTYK
As to conditions: OCI-Ly1, Compound concentration 1.0 uM.

Experiment [4] addresses T2, Zinc finger and BTB domain-containing protein 10 (Homo sapiens) (UniProt Q96DT7).
T2 sequence (whole entry): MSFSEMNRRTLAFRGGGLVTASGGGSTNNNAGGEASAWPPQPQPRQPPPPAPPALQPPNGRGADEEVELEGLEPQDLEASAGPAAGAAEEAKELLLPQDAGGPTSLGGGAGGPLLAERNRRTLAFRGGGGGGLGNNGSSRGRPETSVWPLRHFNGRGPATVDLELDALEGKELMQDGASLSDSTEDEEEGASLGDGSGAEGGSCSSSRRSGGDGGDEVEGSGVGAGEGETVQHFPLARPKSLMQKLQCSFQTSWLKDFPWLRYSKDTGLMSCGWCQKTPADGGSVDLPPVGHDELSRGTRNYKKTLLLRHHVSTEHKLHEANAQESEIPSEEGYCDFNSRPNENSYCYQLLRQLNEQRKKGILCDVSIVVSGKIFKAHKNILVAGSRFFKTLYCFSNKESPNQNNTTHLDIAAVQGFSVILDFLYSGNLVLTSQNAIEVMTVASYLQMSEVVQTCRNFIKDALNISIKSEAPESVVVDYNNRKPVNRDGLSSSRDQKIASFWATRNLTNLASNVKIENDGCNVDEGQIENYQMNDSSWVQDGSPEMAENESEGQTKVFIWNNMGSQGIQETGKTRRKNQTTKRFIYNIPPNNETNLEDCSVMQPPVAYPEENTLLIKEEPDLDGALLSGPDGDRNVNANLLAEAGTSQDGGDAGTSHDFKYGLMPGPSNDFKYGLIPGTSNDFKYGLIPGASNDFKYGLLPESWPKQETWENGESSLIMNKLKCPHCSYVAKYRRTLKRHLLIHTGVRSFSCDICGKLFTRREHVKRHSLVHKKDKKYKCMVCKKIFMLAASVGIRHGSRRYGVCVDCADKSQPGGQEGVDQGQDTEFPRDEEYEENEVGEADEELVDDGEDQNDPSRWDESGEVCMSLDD
As to conditions: SUD4, Compound concentration 1.0 uM.

Experiment [5] addresses Dual specificity tyrosine-phosphorylation-regulated kinase 2 (Homo sapiens) (UniProt Q92630). Description: DYRK2 SGC Tm panel (DSF). As to conditions: Compound concentration 20.0 uM.
In experiment [6] the target is MAP/microtubule affinity-regulating kinase 3 (Homo sapiens) (UniProt P27448). Description: MARK3 SGC Tm panel (DSF). To be noted: Compound concentration 20.0 uM.
Experiment [7] concerns the target Sodium-dependent dopamine transporter (Homo sapiens, UniProt Q01959). Description: GPCRScan assay: inhibition of DAT. Details: radioligand conc. used [nm] 3.6 – 16.0, parental cells stable HEK.
Experiment [8] has as its target Serine/threonine-protein kinase OSR1 (Homo sapiens) (UniProt O95747). Description: OSR1 SGC Tm panel (DSF). As to conditions: Compound concentration 20.0 uM.
The target in experiment [9] is B-cell lymphoma 6 protein (Homo sapiens, UniProt P41182). As to conditions: SUD4, Compound concentration 1.0 uM.
The target in experiment [10] is Fibroblast growth factor receptor 3 (Homo sapiens) (UniProt P22607). The experiment is described as follows: FGFR3 SGC Tm panel (DSF). As to conditions: Compound concentration 20.0 uM.
Experiment [11] deals with 5-hydroxytryptamine receptor 2C (Homo sapiens) (UniProt P28335). To be noted: Compound concentration 10.0 uM.
Experiment [12] addresses Zinc finger and BTB domain-containing protein 7A (Homo sapiens) (UniProt O95365). As to conditions: SUD4, Compound concentration 1.0 uM.
The target in a further experiment is Peregrin (Homo sapiens) (UniProt P55201). The experiment is described as follows: BRPF1 SGC Tm panel (DSF). To be noted: Compound concentration 20.0 uM.
For experiment [13], the target named is Adenosine receptor A2a (Homo sapiens) (UniProt P29274). Description: GPCRScan assay: inhibition of A2A. To be noted: Compound concentration 10.0 uM.
The target in experiment [14] is 5-hydroxytryptamine receptor 1B (Homo sapiens) (UniProt P28222). As to conditions: Compound concentration 10.0 uM.
Experiment [15] addresses Casein kinase II subunit alpha' (Homo sapiens) (UniProt P19784). Description: CSNK2A2 SGC Tm panel (DSF). To be noted: Compound concentration 20.0 uM.
Experiment [16] addresses T3, Zinc finger protein 131 (Homo sapiens) (UniProt P52739).
T3 sequence (whole entry): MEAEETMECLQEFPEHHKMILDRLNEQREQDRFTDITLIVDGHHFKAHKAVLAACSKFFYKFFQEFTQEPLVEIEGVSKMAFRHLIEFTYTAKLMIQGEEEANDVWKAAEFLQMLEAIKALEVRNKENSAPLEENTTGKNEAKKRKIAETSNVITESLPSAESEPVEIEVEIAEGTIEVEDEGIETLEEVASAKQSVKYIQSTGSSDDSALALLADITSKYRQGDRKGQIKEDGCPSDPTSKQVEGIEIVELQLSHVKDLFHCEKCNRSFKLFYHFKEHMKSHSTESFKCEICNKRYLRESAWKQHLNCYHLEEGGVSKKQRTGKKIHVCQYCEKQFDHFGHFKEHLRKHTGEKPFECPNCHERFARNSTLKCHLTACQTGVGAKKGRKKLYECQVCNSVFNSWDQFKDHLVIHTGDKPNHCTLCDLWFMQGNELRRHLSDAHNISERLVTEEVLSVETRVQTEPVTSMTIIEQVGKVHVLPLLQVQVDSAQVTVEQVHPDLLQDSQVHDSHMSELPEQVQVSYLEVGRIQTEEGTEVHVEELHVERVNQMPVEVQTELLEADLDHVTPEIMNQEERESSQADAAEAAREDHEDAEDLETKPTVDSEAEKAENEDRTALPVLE
To be noted: SUD4, Compound concentration 1.0 uM.

In experiment [17] the target is Zinc finger and BTB domain-containing protein 43 (Homo sapiens) (UniProt O43298). As to conditions: SUD4, Compound concentration 1.0 uM.

Structures are written as SMILES. pKi: −log10 of the molar value.

Sodium-dependent dopamine transporter, sequence (Q01959 whole entry): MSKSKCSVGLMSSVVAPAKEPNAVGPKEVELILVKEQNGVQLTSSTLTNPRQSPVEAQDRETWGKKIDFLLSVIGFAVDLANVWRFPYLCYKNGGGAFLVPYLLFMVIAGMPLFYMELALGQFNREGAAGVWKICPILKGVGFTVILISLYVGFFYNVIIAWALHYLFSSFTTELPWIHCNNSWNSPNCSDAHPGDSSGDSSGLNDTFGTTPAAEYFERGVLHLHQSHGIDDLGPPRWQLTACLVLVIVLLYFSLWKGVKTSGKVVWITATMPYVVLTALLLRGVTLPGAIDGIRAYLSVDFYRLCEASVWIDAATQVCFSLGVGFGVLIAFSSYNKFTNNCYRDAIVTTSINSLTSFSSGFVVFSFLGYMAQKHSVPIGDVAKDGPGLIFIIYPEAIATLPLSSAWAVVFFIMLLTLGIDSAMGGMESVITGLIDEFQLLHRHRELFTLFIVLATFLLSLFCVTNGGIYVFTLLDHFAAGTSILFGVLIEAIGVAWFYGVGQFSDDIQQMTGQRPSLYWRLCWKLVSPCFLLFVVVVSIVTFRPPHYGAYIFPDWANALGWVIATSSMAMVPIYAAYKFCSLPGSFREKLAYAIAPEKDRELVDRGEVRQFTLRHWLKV
Zinc finger and BTB domain-containing protein 43 (Homo sapiens), sequence (O43298 whole entry, the tested form may be a part): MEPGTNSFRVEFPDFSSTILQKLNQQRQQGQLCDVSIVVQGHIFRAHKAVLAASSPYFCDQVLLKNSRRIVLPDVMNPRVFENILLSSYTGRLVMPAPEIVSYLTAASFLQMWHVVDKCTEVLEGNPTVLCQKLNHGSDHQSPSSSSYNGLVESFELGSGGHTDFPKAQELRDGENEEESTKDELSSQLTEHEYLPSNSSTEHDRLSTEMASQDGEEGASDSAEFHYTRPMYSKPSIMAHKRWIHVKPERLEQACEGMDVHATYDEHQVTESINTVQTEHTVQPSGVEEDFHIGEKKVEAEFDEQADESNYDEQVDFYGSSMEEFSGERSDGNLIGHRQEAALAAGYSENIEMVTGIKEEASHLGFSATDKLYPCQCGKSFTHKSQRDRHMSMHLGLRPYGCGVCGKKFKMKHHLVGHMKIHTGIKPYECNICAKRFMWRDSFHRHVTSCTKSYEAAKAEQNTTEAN
Adenosine receptor A2a (Homo sapiens), sequence (P29274 whole entry): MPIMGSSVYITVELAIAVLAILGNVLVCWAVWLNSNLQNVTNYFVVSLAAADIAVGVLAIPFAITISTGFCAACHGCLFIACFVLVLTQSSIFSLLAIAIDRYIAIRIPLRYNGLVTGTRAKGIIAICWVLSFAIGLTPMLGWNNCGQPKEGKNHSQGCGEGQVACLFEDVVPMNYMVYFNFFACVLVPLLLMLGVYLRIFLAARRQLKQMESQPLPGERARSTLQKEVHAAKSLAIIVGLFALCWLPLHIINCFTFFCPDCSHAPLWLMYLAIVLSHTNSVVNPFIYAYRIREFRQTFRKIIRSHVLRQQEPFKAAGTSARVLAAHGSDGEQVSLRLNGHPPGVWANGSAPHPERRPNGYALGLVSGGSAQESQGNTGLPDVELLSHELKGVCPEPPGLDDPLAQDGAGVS
MAP/microtubule affinity-regulating kinase 3 (Homo sapiens), sequence (P27448 whole entry, looked up): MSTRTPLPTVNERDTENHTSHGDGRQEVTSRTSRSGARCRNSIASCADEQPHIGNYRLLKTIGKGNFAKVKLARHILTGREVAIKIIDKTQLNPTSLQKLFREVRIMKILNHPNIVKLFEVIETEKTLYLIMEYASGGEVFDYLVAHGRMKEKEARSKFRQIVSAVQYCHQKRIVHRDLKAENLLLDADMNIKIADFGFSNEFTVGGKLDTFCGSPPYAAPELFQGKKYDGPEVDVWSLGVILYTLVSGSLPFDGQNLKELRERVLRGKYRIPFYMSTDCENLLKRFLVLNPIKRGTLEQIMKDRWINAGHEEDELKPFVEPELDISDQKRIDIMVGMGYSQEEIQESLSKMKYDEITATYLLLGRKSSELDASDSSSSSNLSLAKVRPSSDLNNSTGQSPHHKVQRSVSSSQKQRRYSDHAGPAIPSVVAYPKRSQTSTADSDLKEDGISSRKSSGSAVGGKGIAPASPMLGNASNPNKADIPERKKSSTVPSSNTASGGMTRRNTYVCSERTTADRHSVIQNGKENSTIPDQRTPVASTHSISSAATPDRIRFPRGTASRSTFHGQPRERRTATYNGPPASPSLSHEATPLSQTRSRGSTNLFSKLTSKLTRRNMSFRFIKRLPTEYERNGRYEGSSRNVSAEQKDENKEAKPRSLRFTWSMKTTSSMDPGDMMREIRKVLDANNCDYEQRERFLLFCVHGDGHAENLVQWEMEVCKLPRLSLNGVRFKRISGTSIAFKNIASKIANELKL
Fibroblast growth factor receptor 3 (Homo sapiens), sequence (P22607 23-806 limits assumed): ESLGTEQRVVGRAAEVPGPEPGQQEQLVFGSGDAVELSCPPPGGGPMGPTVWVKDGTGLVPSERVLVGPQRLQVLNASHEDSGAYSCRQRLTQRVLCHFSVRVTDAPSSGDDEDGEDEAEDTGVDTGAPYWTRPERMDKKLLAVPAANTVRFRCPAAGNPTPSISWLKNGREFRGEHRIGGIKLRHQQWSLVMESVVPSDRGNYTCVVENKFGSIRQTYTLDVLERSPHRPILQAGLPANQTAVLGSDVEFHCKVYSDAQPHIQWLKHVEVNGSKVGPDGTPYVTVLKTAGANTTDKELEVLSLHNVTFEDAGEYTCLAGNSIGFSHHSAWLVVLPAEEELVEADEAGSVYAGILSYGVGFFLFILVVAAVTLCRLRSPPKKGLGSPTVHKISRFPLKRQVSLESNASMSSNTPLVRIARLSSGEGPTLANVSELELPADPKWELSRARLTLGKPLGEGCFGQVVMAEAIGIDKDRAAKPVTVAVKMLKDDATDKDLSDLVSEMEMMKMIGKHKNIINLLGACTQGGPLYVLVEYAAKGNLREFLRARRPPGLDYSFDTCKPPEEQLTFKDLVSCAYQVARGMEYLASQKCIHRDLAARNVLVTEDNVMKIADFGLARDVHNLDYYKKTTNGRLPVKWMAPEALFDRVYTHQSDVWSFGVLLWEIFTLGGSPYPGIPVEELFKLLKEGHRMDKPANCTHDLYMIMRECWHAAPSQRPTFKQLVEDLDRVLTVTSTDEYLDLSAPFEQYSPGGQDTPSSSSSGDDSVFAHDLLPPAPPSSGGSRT
Histamine H4 receptor (Homo sapiens), sequence (Q9H3N8 whole entry): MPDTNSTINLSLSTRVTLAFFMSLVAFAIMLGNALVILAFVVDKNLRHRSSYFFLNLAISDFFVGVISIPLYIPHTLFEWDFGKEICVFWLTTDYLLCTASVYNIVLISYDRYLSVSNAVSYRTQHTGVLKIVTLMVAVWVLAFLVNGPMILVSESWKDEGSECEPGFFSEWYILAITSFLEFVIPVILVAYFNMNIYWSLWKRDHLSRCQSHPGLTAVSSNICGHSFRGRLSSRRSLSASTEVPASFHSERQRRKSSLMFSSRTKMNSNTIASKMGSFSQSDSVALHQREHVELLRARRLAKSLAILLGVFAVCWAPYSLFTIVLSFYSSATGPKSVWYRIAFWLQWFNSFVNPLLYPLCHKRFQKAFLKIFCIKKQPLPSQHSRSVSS
Zinc finger and BTB domain-containing protein 7A (Homo sapiens), sequence (O95365 whole entry, the tested form may be a part): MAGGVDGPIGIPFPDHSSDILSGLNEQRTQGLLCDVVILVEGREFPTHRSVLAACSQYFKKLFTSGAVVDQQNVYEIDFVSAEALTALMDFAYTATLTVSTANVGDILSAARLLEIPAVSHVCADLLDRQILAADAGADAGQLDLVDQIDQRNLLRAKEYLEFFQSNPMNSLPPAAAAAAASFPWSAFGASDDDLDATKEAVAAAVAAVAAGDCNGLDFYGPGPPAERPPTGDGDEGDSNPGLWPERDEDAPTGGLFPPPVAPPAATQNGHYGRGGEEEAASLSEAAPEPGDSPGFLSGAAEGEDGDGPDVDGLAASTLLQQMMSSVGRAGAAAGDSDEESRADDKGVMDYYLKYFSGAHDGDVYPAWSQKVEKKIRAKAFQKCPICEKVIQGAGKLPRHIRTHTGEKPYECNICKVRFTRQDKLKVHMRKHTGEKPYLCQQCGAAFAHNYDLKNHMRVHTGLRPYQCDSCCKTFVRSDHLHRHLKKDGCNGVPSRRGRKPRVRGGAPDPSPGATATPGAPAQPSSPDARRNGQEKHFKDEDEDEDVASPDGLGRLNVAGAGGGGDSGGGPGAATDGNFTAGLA
5-hydroxytryptamine receptor 1B (Homo sapiens), sequence (P28222 whole entry): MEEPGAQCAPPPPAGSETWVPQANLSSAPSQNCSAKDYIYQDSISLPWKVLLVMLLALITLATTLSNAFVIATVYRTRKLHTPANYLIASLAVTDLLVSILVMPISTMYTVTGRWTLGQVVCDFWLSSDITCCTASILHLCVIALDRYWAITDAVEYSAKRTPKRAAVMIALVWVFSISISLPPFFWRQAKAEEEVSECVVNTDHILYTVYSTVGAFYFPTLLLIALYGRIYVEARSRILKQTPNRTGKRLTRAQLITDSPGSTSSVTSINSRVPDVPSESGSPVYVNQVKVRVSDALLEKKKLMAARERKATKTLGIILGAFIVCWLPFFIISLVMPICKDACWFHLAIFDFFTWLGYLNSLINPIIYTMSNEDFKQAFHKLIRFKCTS
Dual specificity tyrosine-phosphorylation-regulated kinase 2 (Homo sapiens), sequence (Q92630 whole entry): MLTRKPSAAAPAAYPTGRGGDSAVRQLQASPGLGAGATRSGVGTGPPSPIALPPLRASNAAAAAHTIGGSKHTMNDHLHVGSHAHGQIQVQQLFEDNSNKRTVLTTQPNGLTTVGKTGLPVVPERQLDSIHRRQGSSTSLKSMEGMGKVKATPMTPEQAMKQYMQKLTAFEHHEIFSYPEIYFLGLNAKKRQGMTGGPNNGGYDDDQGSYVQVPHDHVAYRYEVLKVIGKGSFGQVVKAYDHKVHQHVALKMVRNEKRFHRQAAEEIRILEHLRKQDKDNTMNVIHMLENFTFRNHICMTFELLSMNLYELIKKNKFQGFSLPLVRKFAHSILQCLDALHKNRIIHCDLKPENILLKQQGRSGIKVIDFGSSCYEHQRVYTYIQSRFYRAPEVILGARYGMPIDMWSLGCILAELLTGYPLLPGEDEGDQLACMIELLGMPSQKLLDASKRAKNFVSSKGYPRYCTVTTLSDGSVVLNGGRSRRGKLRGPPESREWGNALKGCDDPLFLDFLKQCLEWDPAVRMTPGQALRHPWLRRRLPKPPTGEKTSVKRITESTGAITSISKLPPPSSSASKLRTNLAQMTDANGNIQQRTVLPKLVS

What is called inhibition is the drop in the measured response relative to a control, in per cent. As usually defined, the Tm is the temperature at which the thermal transition is half complete. A word on the pKi: it is the Ki on a negative log10 scale, so that one unit is a factor of ten. With `C[C@@H]1CN(c2ncc(Cl)c(Nc3ccc4c(c3)n(CCC(C)(C)O)c(=O)n4C)n2)C[C@H](C)C1(F)F`, the inhibition in experiment [1] is -0.79%; in [11], 16.1%; in experiment [13] it was -3.49%; in [14], 3.38%. Further, the Tm in [2] is 45 °C; in experiment [5], 46 °C; in experiment [6], 35 °C; in experiment [8], 39 °C; in [10], 42 °C; on Peregrin (Homo sapiens) it was 44 °C. The Tm in experiment [15] was 43 °C. Moreover, the LogFC in experiment [3] was -0.0251; in [4], 0.0283; in [9], -1.13; in experiment [12] it was -0.0678; in [16], 0.111; in experiment [17] it was 0.0389. Besides, in experiment [7] (read-out: Ki), the pKi was 5.29. The Ki in experiment [7] (read-out: pKi (converted)) is 4.9 µM.
